# Data published in patent publication US6881747B2, “Small molecules for inhibition of function and drug delivery to leukocytes” (Science & Technology Corporation @UNM, priority 2002, dated 2005).
# Biological target: LFA-1 (Homo sapiens, UniProt P20701)
# Test: Affinity (KD) of derivatives for LFA-1
# Type: binding
# Settings: affinity for LFA-1; read-out: KD (Affinity constant)
# Chain of LFA-1 (P20701 26-1170): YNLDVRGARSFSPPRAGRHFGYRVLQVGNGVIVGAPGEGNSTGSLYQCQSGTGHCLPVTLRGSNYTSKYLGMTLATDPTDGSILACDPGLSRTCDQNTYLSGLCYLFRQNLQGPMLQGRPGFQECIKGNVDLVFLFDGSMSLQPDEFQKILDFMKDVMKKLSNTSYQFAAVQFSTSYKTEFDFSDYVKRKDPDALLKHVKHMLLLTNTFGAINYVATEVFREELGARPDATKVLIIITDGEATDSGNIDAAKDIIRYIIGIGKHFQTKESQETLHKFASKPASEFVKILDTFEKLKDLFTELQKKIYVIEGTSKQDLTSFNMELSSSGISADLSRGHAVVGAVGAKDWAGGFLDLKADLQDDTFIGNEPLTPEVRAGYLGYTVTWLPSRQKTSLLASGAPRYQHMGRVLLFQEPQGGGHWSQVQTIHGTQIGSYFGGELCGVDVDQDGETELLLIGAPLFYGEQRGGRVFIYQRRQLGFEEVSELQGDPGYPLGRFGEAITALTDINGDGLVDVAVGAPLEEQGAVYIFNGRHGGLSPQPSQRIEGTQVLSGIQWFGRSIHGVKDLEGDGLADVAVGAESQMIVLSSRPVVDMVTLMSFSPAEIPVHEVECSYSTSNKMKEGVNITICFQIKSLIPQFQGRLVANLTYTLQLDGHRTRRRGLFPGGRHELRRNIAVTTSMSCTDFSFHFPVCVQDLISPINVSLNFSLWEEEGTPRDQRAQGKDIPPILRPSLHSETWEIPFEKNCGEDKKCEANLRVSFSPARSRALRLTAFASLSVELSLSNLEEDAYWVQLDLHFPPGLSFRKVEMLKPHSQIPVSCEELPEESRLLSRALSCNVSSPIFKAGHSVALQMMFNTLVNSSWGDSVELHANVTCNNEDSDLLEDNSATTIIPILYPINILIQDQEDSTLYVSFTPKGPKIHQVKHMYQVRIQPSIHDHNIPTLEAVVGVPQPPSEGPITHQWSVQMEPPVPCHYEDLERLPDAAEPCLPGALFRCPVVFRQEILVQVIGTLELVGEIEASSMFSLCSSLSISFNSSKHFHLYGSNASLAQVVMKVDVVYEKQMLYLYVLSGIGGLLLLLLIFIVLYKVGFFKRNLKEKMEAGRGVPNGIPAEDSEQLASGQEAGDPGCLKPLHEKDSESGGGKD
# Chain of LFA-1 (P05107 23-769 partner): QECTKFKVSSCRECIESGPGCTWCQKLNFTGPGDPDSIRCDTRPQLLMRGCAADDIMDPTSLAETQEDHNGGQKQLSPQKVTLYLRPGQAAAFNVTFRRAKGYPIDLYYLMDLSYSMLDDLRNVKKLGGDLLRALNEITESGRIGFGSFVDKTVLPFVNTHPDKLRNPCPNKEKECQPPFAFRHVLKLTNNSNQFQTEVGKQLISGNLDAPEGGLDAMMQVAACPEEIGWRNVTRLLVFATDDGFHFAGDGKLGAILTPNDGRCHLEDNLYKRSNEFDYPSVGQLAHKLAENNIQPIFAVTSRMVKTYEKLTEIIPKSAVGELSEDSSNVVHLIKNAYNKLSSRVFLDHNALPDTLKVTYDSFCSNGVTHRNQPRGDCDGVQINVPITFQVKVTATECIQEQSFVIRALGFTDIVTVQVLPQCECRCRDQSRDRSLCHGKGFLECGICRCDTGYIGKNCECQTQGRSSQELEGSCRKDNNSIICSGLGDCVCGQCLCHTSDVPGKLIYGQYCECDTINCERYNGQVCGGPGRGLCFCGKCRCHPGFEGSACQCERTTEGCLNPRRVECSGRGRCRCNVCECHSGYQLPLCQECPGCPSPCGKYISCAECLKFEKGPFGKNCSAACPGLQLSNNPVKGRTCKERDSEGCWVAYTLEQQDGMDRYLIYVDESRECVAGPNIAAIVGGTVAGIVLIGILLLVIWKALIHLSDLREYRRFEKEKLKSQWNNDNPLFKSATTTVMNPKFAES
row,Compound,Kd [nM]
1,"5-(4-bromobenzyl)-3-(3,5-dichlorophenyl)-5-methyl-imidazolidine-2,4-dione-1-(1-butyl-4-fluoresceincarbamide) [Fluorescein- Butylamino- Nor-BIRT]",115
2,"C[C@@]1(Cc2ccc(Br)cc2)C(=O)N(c2cc(Cl)cc(Cl)c2)C(=O)N1CCCCN [Butylamino- Nor-BIRT, 1-(4-aminobutyl)-5-(4-bromobenzyl)-3-(3,5-dichlorophenyl)-5-methyl-imidazolidine-2,4-dione]",75

# Results, then the compound that gave them:
row,Kd [nM],Compound
1,620,O=C1N[C@H](Cc2ccccc2)C(=O)N1c1cc(Cl)cc(Cl)c1 [JEB I-19]
2,1200,CN1C(=O)N(c2cc(Cl)cc(Cl)c2)C(=O)[C@@H]1Cc1ccccc1 [JEB I-24]
3,1230,CN1C(=O)N(c2cc(Cl)cc(Cl)c2)C(=O)[C@H]1Cc1ccccc1 [JEB I-22]
4,3650,O=C1N[C@@H](Cc2ccccc2)C(=O)N1c1cc(Cl)cc(Cl)c1 [JEB I-18]
